Values quoted from earlier work as cited in article PMC11400633, “Peptides inhibiting the assembly of monomeric human L‐lactate dehydrogenase into catalytically active homotetramer decrease the synthesis of lactate in cultured cells” (Protein Science : A Publication of the Protein Society, 2024).

Key:
[1] = tested on: LDH‐A; settings: dynamic light scattering; shift from about 240 kDa; ref Jafary et al., 2019; cited from earlier work
Text: (§1) In particular, the loss of activity related to the dissociation of tetrameric LDH‐A (Hermann et al., [1981]; Pasti et al., [2022]) prompts the search for peptides able to interfere with the quaternary structure of this enzyme. Peptides can indeed mimic a secondary structure element supposed to be a major determinant of the reciprocal interactions engaged by the subunits of an oligomeric protein (Wang et al., [2021]). Nevertheless, it should be noted that the effectivenes ...

[2] = target: dimeric LDH‐B; settings: ref Thabault et al., 2020; read-out: K D for dimeric LDH‐B; cited from earlier work
Text: as §1

[3] = tested on: LDH‐5; settings: LDH-5 exposed to pH 2.5, incubated with peptide 2 min, then pH 7.4; ref Nadal‐Bufi et al., 2021; cited from earlier work
Text: as §1, with “... || Structurally speaking, the four subunits of LDH‐5 are arranged as a binary association of dimers, with their N‐ and C‐terminal regions reciprocally engaged in dimer‐dimer interactions (Read et al., [2001]). […] Moreov ...” for “...”

Row | Substance | apparent LDH‐A molecular mass in the presence of peptide [1] | also measured
1 | IYNLLK [hexamer of the literature targeting the C‐terminal region of LDH‐A] | ca. 100 kDa | –
2 | ATLKEKLI | – | Kd [2]: 1000 µM
3 | Ac-QNGISDLVK-NH2 [Peptide C1] | – | action against LDH‐A (in words) [3]: ineffective
4 | KVVYNV [hexamer of the literature targeting the C‐terminal region of LDH‐A] | ca. 100 kDa | –
